Laboratory results reported in PMC11062894, “Protein-based bandpass filters for controlling cellular signaling with chemical inputs” (Nature Chemical Biology, 2023).
“And” between values parts separate entries of the source, which are not always exact repeats. Identical values can stand only once.

Tested on: GEMS receptors with CBPvene (Bcl2–LD3 and Bcl2high variants), STAT3-driven SEAP in HEK293T cells
Experiment: GEMS SEAP reporter assay, CBPvene (Bcl2high, LD3-v and Bcl2-v variants) with venetoclax
Type: cell-based
Conditions: for SEAP, replicate values: Supplementary Figure 8e
[1] = SuppFigure 8b, LD3, venetoclax 10 nM
[2] = SuppFigure 8b, LD3, venetoclax 31.6 nM
[3] = SuppFigure 8b, LD3, venetoclax 100 nM
[4] = SuppFigure 8b, LD3, venetoclax 316 nM
[5] = SuppFigure 8b, LD3, venetoclax 1000 nM
[6] = SuppFigure 8b, LD3, venetoclax 3160 nM
[7] = SuppFigure 8b, LD3, venetoclax 10000 nM
[8] = SuppFigure 8b, LD3v1, venetoclax 1 nM
[9] = SuppFigure 8b, LD3v1, venetoclax 3.16 nM
[10] = SuppFigure 8b, LD3v1, venetoclax 10 nM
[11] = SuppFigure 8b, LD3v1, venetoclax 31.6 nM
[12] = SuppFigure 8b, LD3v1, venetoclax 100 nM
[13] = SuppFigure 8b, LD3v1, venetoclax 316 nM
[14] = SuppFigure 8b, LD3v1, venetoclax 1000 nM
[15] = SuppFigure 8b, LD3v1, venetoclax 3160 nM
[16] = SuppFigure 8b, LD3v1, venetoclax 10000 nM
[17] = SuppFigure 8b, LD3v2, venetoclax 1 nM
[18] = SuppFigure 8b, LD3v2, venetoclax 3.16 nM
[19] = SuppFigure 8b, LD3v2, venetoclax 10 nM
[20] = SuppFigure 8b, LD3v2, venetoclax 31.6 nM
[21] = SuppFigure 8b, LD3v2, venetoclax 100 nM
[22] = SuppFigure 8b, LD3v2, venetoclax 316 nM
[23] = SuppFigure 8b, LD3v2, venetoclax 1000 nM
[24] = SuppFigure 8b, LD3v2, venetoclax 3160 nM
[25] = SuppFigure 8b, LD3v2, venetoclax 10000 nM
[26] = SuppFigure 8b, LD3v3, venetoclax 1 nM
[27] = SuppFigure 8b, LD3v3, venetoclax 3.16 nM
[28] = SuppFigure 8b, LD3v3, venetoclax 10 nM
[29] = SuppFigure 8b, LD3v3, venetoclax 31.6 nM
[30] = SuppFigure 8b, LD3v3, venetoclax 100 nM
[31] = SuppFigure 8b, LD3v3, venetoclax 316 nM
[32] = SuppFigure 8b, LD3v3, venetoclax 1000 nM
[33] = SuppFigure 8b, LD3v3, venetoclax 3160 nM
[34] = SuppFigure 8b, LD3v3, venetoclax 10000 nM
[35] = SuppFigure 8c, LD3, venetoclax 1 nM
[36] = SuppFigure 8c, LD3, venetoclax 3.16 nM
[37] = SuppFigure 8c, LD3, venetoclax 10 nM
[38] = SuppFigure 8c, LD3, venetoclax 31.6 nM
[39] = SuppFigure 8c, LD3, venetoclax 100 nM
[40] = SuppFigure 8c, LD3, venetoclax 316 nM
[41] = SuppFigure 8c, LD3, venetoclax 1000 nM
[42] = SuppFigure 8c, LD3, venetoclax 3160 nM
[43] = SuppFigure 8c, LD3, venetoclax 10000 nM
[44] = SuppFigure 8c, LD3v1, venetoclax 1 nM
[45] = SuppFigure 8c, LD3v1, venetoclax 3.16 nM
[46] = SuppFigure 8c, LD3v1, venetoclax 10 nM
[47] = SuppFigure 8c, LD3v1, venetoclax 31.6 nM
[48] = SuppFigure 8c, LD3v1, venetoclax 100 nM
[49] = SuppFigure 8c, LD3v1, venetoclax 316 nM
[50] = SuppFigure 8c, LD3v1, venetoclax 1000 nM
[51] = SuppFigure 8c, LD3v1, venetoclax 3160 nM
[52] = SuppFigure 8c, LD3v1, venetoclax 10000 nM
[53] = SuppFigure 8c, LD3v2, venetoclax 1 nM
[54] = SuppFigure 8c, LD3v2, venetoclax 3.16 nM
[55] = SuppFigure 8c, LD3v2, venetoclax 10 nM
[56] = SuppFigure 8c, LD3v2, venetoclax 31.6 nM
[57] = SuppFigure 8c, LD3v2, venetoclax 100 nM
[58] = SuppFigure 8c, LD3v2, venetoclax 316 nM
[59] = SuppFigure 8c, LD3v2, venetoclax 1000 nM
[60] = SuppFigure 8c, LD3v2, venetoclax 3160 nM
[61] = SuppFigure 8c, LD3v2, venetoclax 10000 nM
[62] = SuppFigure 8c, LD3v3, venetoclax 1 nM
[63] = SuppFigure 8c, LD3v3, venetoclax 3.16 nM
[64] = SuppFigure 8c, LD3v3, venetoclax 10 nM
[65] = SuppFigure 8c, LD3v3, venetoclax 31.6 nM
[66] = SuppFigure 8c, LD3v3, venetoclax 100 nM
[67] = SuppFigure 8c, LD3v3, venetoclax 316 nM
[68] = SuppFigure 8c, LD3v3, venetoclax 1000 nM
[69] = SuppFigure 8c, LD3v3, venetoclax 3160 nM
[70] = SuppFigure 8c, LD3v3, venetoclax 10000 nM

CC1(C)CCC(CN2CCN(c3ccc(C(=O)NS(=O)(=O)c4ccc(NCC5CCOCC5)c([N+](=O)[O-])c4)c(Oc4cnc5[nH]ccc5c4)c3)CC2)=C(c2ccc(Cl)cc2)C1 [Venetoclax]
Normalized data (SEAP) [1]: 4.498 | Raw data (SEAP) [1]: 18.9052 | Normalized data (SEAP) [2]: 14.8552 | Raw data (SEAP) [2]: 62.4429 | Normalized data (SEAP) [3]: 43.1759 | Raw data (SEAP) [3]: 181.487 | Normalized data (SEAP) [4]: 91.7223 | Raw data (SEAP) [4]: 385.549 | Normalized data (SEAP) [5]: 100 | Raw data (SEAP) [5]: 420.344 | Normalized data (SEAP) [6]: 92.3499 | Raw data (SEAP) [6]: 388.188 | Normalized data (SEAP) [7]: 51.2329 | Raw data (SEAP) [7]: 215.355 | Normalized data (SEAP) [8]: 9.345 | Raw data (SEAP) [8]: 17.9682 | Normalized data (SEAP) [9]: 9.034 | Raw data (SEAP) [9]: 17.3705 | Normalized data (SEAP) [10]: 10.4886 | Raw data (SEAP) [10]: 20.1681 | Normalized data (SEAP) [11]: 19.5956 | Raw data (SEAP) [11]: 37.6794 | Normalized data (SEAP) [12]: 44.2027 | Raw data (SEAP) [12]: 84.9952 | Normalized data (SEAP) [13]: 100 | Raw data (SEAP) [13]: 192.285 | Normalized data (SEAP) [14]: 87.7314 | Raw data (SEAP) [14]: 168.695 | Normalized data (SEAP) [15]: 49.2054 | Raw data (SEAP) [15]: 94.6147 | Normalized data (SEAP) [16]: 19.8616 | Raw data (SEAP) [16]: 38.191 | Normalized data (SEAP) [17]: 3.604 | Raw data (SEAP) [17]: 12.0656 | Normalized data (SEAP) [18]: 3.9805 | Raw data (SEAP) [18]: 13.3245 | Normalized data (SEAP) [19]: 4.834 | Raw data (SEAP) [19]: 16.18 | Normalized data (SEAP) [20]: 12.8068 | Raw data (SEAP) [20]: 42.87 | Normalized data (SEAP) [21]: 33.7173 | Raw data (SEAP) [21]: 112.867 | Normalized data (SEAP) [22]: 77.9659 | Raw data (SEAP) [22]: 260.986 | Normalized data (SEAP) [23]: 100 | Raw data (SEAP) [23]: 334.744 | Normalized data (SEAP) [24]: 66.077 | Raw data (SEAP) [24]: 221.189 | Normalized data (SEAP) [25]: 30.9558 | Raw data (SEAP) [25]: 103.623 | Normalized data (SEAP) [26]: 59.1038 | Raw data (SEAP) [26]: 11.2669 | Normalized data (SEAP) [27]: 71.809 | Raw data (SEAP) [27]: 13.6889 | Normalized data (SEAP) [28]: 61.7452 | Raw data (SEAP) [28]: 11.7704 | Normalized data (SEAP) [29]: 69.7498 | Raw data (SEAP) [29]: 13.2963 | Normalized data (SEAP) [30]: 80.5519 | Raw data (SEAP) [30]: 15.3555 | Normalized data (SEAP) [31]: 100 | Raw data (SEAP) [31]: 19.0629 | Normalized data (SEAP) [32]: 89.5017 | Raw data (SEAP) [32]: 17.0616 | Normalized data (SEAP) [33]: 75.6488 | Raw data (SEAP) [33]: 14.4208 | Normalized data (SEAP) [34]: 59.7156 | Raw data (SEAP) [34]: 11.3835 | Normalized data (SEAP) [35]: 3.575 | Raw data (SEAP) [35]: 13.7218 | Normalized data (SEAP) [36]: 3.97 | Raw data (SEAP) [36]: 15.2365 | Normalized data (SEAP) [37]: 6.118 | Raw data (SEAP) [37]: 23.4789 | Normalized data (SEAP) [38]: 19.9083 | Raw data (SEAP) [38]: 76.4036 | Normalized data (SEAP) [39]: 50.1718 | Raw data (SEAP) [39]: 192.548 | Normalized data (SEAP) [40]: 93.753 | Raw data (SEAP) [40]: 359.804 | Normalized data (SEAP) [41]: 100 | Raw data (SEAP) [41]: 383.778 | Normalized data (SEAP) [42]: 77.866 | Raw data (SEAP) [42]: 298.833 | Normalized data (SEAP) [43]: 35.1914 | Raw data (SEAP) [43]: 135.057 | Normalized data (SEAP) [44]: 13.8401 | Raw data (SEAP) [44]: 15.4633 | Normalized data (SEAP) [45]: 14.8573 | Raw data (SEAP) [45]: 16.5999 | Normalized data (SEAP) [46]: 15.6025 | Raw data (SEAP) [46]: 17.4324 | Normalized data (SEAP) [47]: 28.6773 | Raw data (SEAP) [47]: 32.0407 | Normalized data (SEAP) [48]: 48.5828 | Raw data (SEAP) [48]: 54.2809 | Normalized data (SEAP) [49]: 100 | Raw data (SEAP) [49]: 111.729 | Normalized data (SEAP) [50]: 98.9424 | Raw data (SEAP) [50]: 110.547 | Normalized data (SEAP) [51]: 75.2543 | Raw data (SEAP) [51]: 84.0806 | Normalized data (SEAP) [52]: 21.4009 | Raw data (SEAP) [52]: 23.9109 | Normalized data (SEAP) [53]: 4.916 | Raw data (SEAP) [53]: 14.375 | Normalized data (SEAP) [54]: 5.386 | Raw data (SEAP) [54]: 15.7505 | Normalized data (SEAP) [55]: 6.285 | Raw data (SEAP) [55]: 18.3792 | Normalized data (SEAP) [56]: 18.3149 | Raw data (SEAP) [56]: 53.5545 | Normalized data (SEAP) [57]: 44.7805 | Raw data (SEAP) [57]: 130.943 | Normalized data (SEAP) [58]: 92.9232 | Raw data (SEAP) [58]: 271.716 | Normalized data (SEAP) [59]: 100 | Raw data (SEAP) [59]: 292.41 | Normalized data (SEAP) [60]: 75.7485 | Raw data (SEAP) [60]: 221.496 | Normalized data (SEAP) [61]: 31.6477 | Raw data (SEAP) [61]: 92.541 | Normalized data (SEAP) [62]: 39.2835 | Raw data (SEAP) [62]: 15.066 | Normalized data (SEAP) [63]: 40.4811 | Raw data (SEAP) [63]: 15.5253 | Normalized data (SEAP) [64]: 41.5277 | Raw data (SEAP) [64]: 15.9266 | Normalized data (SEAP) [65]: 52.0376 | Raw data (SEAP) [65]: 19.9574 | Normalized data (SEAP) [66]: 75.9664 | Raw data (SEAP) [66]: 29.1345 | Normalized data (SEAP) [67]: 100 | Raw data (SEAP) [67]: 38.3518 | Normalized data (SEAP) [68]: 67.7678 | Raw data (SEAP) [68]: 25.9902 | Normalized data (SEAP) [69]: 51.723 | Raw data (SEAP) [69]: 19.8367 | Normalized data (SEAP) [70]: 31.0619 | Raw data (SEAP) [70]: 11.9128 | SEAP, replicate values (CBPVene-v5-LD3v1, venetoclax 100 nM): 98.3781 and 87.1331 and 45.1145 | SEAP, replicate values (CBPVene-v5-LD3v1, venetoclax 3160 nM): 13.0779 | SEAP, replicate values (CBPVene-v5, venetoclax 100 nM): 341.722 and 335.341 | Raw data Figure 5c, CBPVene-v4-LD3v1 (SEAP reporter raw value, single replicate) (Venetoclax 10000 nM, construct CBPVene-v4-LD3v1, three replicate columns): 307.085 and 269.935 and 317.486 | Raw data Figure 5c, CBPVene-v4 (SEAP reporter raw value, single replicate) (Venetoclax 10000 nM, construct CBPVene-v4, three replicate columns): 10.3692 and 8.227 and 12.3711
